Test [1] deals with NCI-H358 cells. Nature of the test: 3D cell proliferation inhibition assay (CellTiter-Glo 3D). The class given is cell-based. As to conditions: Homo sapiens, read-out: Activity by IC50 (nM), inhibitory activity against NCI-H358 cell proliferation. From the text: The cell proliferation inhibition assay was used to determine the abilities of compounds to inhibit the proliferation and growth of SOS1-mediated tumor cells at the in vitro 3D cellular level. The CellTiter-Glo® 3D Cell Viability Assay was employed.
• NCI-H358: KRAS G12C-mutated non-small cell lung cancer (NSCLC); • CellTiter-Glo® 3D Cell Viability Assay, Promega, G9683; • RPMI 1640 medium, Gibco, A10491-01; • FBS, Gibco, 10099141C.
• Day 1: NCI-H358 cells were passaged into a T75 cell culture flask. • Day 3: the medium was removed; the cells were rinsed once with DPBS, and digested at room temperature or at 37° C. using 2 mL of TrypLE™ Express Enzyme until the cells were detached; the resultant was added with 5 mL of fresh medium, and centrifuged at 1000 rpm for 5 min; the supernatant was discarded, and 5 mL of fresh medium was added to resuspend the cells; the cells were counted and then seeded at 40 μL/well in a 3D cell culture plate (Echo Qualified 384-Well Polypropylene Microplate 2.0, Clear, Flat Bottom).
• Day 1: the test compound was dissolved in DMSO to prepare a 10 mM stock solution; after a 1000-fold dilution with DMSO, the test compound solution was subjected to ten 3-fold serial dilutions starting from a concentration of 10 μM; 200 nL of the compound solution was added to the culture plate. • Day 8: CTG 3D reagent was added at 40 μL/well, and the signal was detected using Envision.
The IC50 values of the compounds were fitted using the Graphpad Prism 8 nonlinear regression equation.
[formula] • X: Log of cpd concentration; • Y: Percent inhibition (% inh).
For orientation: In ATP-based viability assays light output follows the ATP content of the culture.

In test [2] the target is T1, K-Ras^G12D and hSOS1 (Homo sapiens, UniProt Q07889).
T1 construct: variant: G12D
The experiment in a line: K-Ras G12D and hSOS1 binding assay (HTRF). As to conditions: inhibition of binding of K-Ras G12D to hSOS1, HTRF; read-out: Activity by IC50 (nM), SOS1 inhibitory activity. The procedure:
1. K-Ras^G12D and hSOS1 Binding Assay
This assay could be used to examine the potency of the compounds to inhibit the protein-protein interaction between SOS1 and KRAS G12D. The binding of anti-GSK-Europium (FRET donor)-conjugated GST-KRas^G12D to anti-6His-XL665-conjugated His-tagged hSOS1 ([…]) was detected by homogeneous time-resolved fluorescence (HTRF), and the inhibitory effects of the compounds on the binding of K-Ras^G12D to hSOS1 were determined.
• Buffer (5 mM HEPES pH 7.4, 150 mM NaCl, 10 mM EDTA, 1 mM DTT, 0.05% BAS pH 7.0, 0.0025% 1gepal, and 100 mM KF); • GST-tagged hK-RasG12D (produced in-house); • His-tagged hSOS1 (produced in-house);
• 10 nM (final concentration) GST-hK-RasG12D and 2 nM (final concentration) anti-GSK-Europium in assay buffer were mixed, and set aside at room temperature.
• 20 nM (final concentration) His-tagged hSOS1 and 10 nM (final concentration) anti-6His-XL665 in assay buffer were mixed, and set aside at room temperature.
The test compound was dissolved in DMSO at a concentration of 100 times the assay concentration. 50 nL of the solution of compound was pipetted by Hummingbird liquid handler or Echo acoustic system to a black microassay plate.
All the experimental steps were conducted at 20° C. In the experiment, 2.5 μL of the liquid mixture of Ras was added to all wells of the assay plate using a Multidrop dispenser. After pre-incubation for 2 min, 2.5 μL of the liquid mixture of SOS was added to all the test wells other than the marginal wells, and 2.5 μL of the […], as a control, was added to the marginal wells. After incubation for 60 min, the assay plate passed through the HTRF module of Pheraster (excitation light: 337 nm, emission light 1: 620 nm, emission light 2: 665 nm).
The IC50 values were calculated and analyzed using a four-parameter logistic regression model.
A general note: TR-FRET usually uses a lanthanide donor and a delayed reading to cut background.

Setting [3] is: 192 h, NCI-H358 (KRAS G12C-mutated NSCLC), 3D culture, CTG 3D read on Day 8.

IC50 data for 38 compounds are collected here from patent US20250051330A1, “HETEROCYCLIC COMPOUND HAVING ANTI-TUMOR ACTIVITY AND USE THEREOF” (CSPC Zhongqi Pharmaceutical Technology (Shijiazhuang) Co., …, priority 2021, published 2025).

Read-outs that look alike come from different tables or passages of the source. Where only a bound is given, the exact number is not on record here.

T1 sequence (Q07889 whole entry, looked up, stated change not applied): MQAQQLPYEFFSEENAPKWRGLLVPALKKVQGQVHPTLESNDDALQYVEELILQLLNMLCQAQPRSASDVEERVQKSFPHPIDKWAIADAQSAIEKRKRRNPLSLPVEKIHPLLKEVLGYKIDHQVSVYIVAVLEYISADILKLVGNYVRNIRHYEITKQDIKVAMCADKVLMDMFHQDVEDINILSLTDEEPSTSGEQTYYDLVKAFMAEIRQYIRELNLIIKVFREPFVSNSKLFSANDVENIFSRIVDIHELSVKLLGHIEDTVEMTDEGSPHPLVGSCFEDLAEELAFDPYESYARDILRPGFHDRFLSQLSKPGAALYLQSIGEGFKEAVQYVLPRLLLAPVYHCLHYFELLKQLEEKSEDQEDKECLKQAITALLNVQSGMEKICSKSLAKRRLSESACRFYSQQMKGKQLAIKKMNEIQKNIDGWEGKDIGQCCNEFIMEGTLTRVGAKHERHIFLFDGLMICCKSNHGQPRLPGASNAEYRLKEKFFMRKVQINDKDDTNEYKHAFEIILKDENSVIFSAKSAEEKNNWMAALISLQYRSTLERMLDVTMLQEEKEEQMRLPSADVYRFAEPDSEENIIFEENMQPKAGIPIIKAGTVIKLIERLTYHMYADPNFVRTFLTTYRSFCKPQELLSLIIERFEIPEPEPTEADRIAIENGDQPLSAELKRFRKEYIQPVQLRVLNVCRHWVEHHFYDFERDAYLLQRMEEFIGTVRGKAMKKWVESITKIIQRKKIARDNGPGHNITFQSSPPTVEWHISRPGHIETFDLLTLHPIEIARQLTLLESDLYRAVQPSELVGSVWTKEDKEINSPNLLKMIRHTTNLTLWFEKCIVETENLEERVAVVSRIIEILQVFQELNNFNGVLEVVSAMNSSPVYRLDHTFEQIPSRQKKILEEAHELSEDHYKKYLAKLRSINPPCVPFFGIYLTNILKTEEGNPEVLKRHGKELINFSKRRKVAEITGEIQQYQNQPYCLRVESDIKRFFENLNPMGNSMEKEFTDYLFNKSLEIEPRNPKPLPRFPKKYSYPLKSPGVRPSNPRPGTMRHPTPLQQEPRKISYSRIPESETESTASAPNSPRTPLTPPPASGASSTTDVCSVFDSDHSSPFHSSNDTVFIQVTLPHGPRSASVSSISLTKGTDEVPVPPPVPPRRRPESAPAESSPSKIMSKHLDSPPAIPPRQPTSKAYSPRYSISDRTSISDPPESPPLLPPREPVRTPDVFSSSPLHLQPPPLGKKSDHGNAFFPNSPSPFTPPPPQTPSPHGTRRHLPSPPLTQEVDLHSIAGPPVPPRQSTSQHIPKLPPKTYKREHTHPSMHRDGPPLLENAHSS

Turning to `Cc1nc(N[C@H](C)c2cccc(C(F)(F)F)c2)c2c(n1)N1CCN=C1C(c1cn(C)c(=O)n(C)c1=O)=C2` [Example 104], in test [1] (setting [3]), the IC50 is 100 to 500 nM. Same read-out and setting: for `Cc1nc(N[C@H](C)c2cc(C(F)(F)F)ccn2)c2c(n1)N1CCN=C1C(c1ccn(C)c(=O)c1)=C2` [Example 117] the value was 100 to 500 nM. On the same count and under the same terms, for `Cc1nc(N[C@H](C)c2cccc(C(F)(F)F)c2)c2c(n1)N1CCN=C1C(c1ccn(CCO)c(=O)c1)=C2` [Example 107] the value was 100 to 500 nM; for `C[C@@H](Nc1nc(C2CC2)nc2c1C=C(c1ccn(C)c(=O)c1)C1=NCCN12)c1cccc(C(F)(F)F)c1` [Example 110], 100 to 500 nM. The same measure, in the same setting: for `COCCn1cc(C2=Cc3c(N[C@H](C)c4cccc(C(F)(F)F)c4)nc(C)nc3N3CCN=C23)ccc1=O` [Example 100] the value was 100 to 500 nM.

For the compound `Cc1nc(N[C@H](C)c2cccc(C(F)(F)F)c2)c2c(n1)N1CCN=C1C(c1ccc(=O)n(C)c1)=C2` [Example 65], the results for the IC50 in test [2] and in test [1] (setting [3]) were 10 to 50 nM and 100 to 500 nM, respectively. In the case of `Cc1nc(N[C@H](C)c2cccc(C(F)(F)F)c2)c2c(n1)N1CCN=C1C(c1ccc(=O)n(CC(F)F)c1)=C2` [Example 101], the IC50 in test [1] (setting [3]) fell in the range of 100 to 500 nM. The same measure, in the same setting: for `Cc1nc(N[C@H](C)c2cccc(C(F)(F)F)c2)c2c(n1)N1CCN=C1C(c1ccn(C3COC3)c(=O)c1)=C2` [Example 108] the value was 50 to 100 nM. Take `Cc1nc(N[C@H](C)c2cccc(C(F)(F)C(C)(C)O)c2F)c2c(n1)N1CCN=C1C(c1ccc(=O)n(C)c1)=C2` [Example 119]: in test [1] (setting [3]), the IC50 was 50 to 100 nM. Still for that read-out and setting: for `Cc1nc(N[C@H](C)c2cccc(C(F)(F)F)c2)c2c(n1)N1CCN=C1C(c1cc(C)c(=O)n(C)c1)=C2` [Example 106] the value was 100 to 500 nM. `Cc1nc(N[C@H](C)c2cc(N)cc(C(F)(F)F)c2)c2c(n1)N1CCN=C1C(c1ccn(C)c(=O)c1)=C2` [Example 6]: the IC50 in test [1] (NCI-H358, 192 h) was less than 50 nM.

`Cc1nc(N[C@H](C)c2cccc(C(F)F)c2F)c2c(n1)N1CCN=C1C(c1ccc(=O)[nH]c1)=C2` [Example 12]: the IC50 was less than 10 nM in test [2] and 100 to 500 nM in test [1] (setting [3]).

`Cc1nc(N[C@H](C)c2cccc3c2OCC3(F)F)c2c(n1)N1CCN=C1C(c1ccc(=O)n(C)c1)=C2` [Example 120]: the IC50 in test [1] (setting [3]) is 100 to 500 nM.

For the compound `Cc1nc(N[C@H](C)c2cccc3c2OCC3(F)F)c2c(n1)N1CCN=C1C(c1ccn(C)c(=O)c1)=C2` [Example 121], in test [1] (setting [3]), the IC50 lay in the range of 100 to 500 nM.

For `Cc1nc(N[C@H](C)c2cccc(C(F)F)c2F)c2c(n1)N1CCN=C1C(C1=CCN(C(=O)CC#N)CC1)=C2` [Example 123], the IC50 in test [2] was less than 10 nM; in test [1] (setting [3]), 50 to 100 nM. `Cc1nc(N[C@H](C)c2cccc(C(F)F)c2F)c2c(n1)N1CCN=C1C(c1ccn(C)c(=O)c1)=C2` [Example 7]: the IC50 in test [1] (NCI-H358, 192 h) is less than 50 nM. With `Cc1nc(N[C@H](C)c2cccc(C(F)F)c2F)c2c(n1)N1CCN=C1C(C1(O)CCN(C(=O)C3(F)CC3)CC1)=C2` [Example 125], the IC50 in test [1] (setting [3]) is 50 to 100 nM. Still for that read-out and setting: for `Cc1nc(N[C@H](C)c2cccc(C(F)(F)F)c2)c2c(n1)N1CCN=C1C(c1ccc(=O)n(C(C)C)c1)=C2` [Example 105] the value was 100 to 500 nM. On to `Cc1nc(N[C@H](C)c2cccc(C(F)(F)F)c2F)c2cc(-c3ccn(C)c(=O)c3)n3cnnc3c2n1` [Example 10], for which the IC50 in test [2] is 10 to 50 nM. For the compound `Cc1nc(N[C@H](C)c2cccc(C(F)(F)F)c2)c2c(n1)N1CCN=C1C(c1ccc(=O)n(CCO)c1)=C2` [Example 97], the IC50 in test [2] was less than 10 nM; in test [1] (setting [3]), 100 to 500 nM. On the same counts, the results for `Cc1nc(N[C@H](C)c2cccc(C(F)(F)F)c2)c2cc(N3CCOCC3)c3nncn3c2n1` [Example 4] are 10 to 50 nM and 100 to 500 nM.

For the compound `CC(=O)N1CC=C(C2=Cc3c(N[C@H](C)c4cccc(C(F)F)c4F)nc(C)nc3N3CCN=C23)CC1` [Example 31], the results for the IC50 in test [2] and in test [1] (setting [3]) were 10 to 50 nM and less than 50 nM, respectively. On to `Cc1nc(N[C@H](C)c2cccc(C(F)(F)F)c2)c2c(n1)N1CCN=C1C(c1cncc(C#N)c1)=C2` [Example 95], for which, in test [1] (setting [3]), the IC50 was 100 to 500 nM. As for `Cc1nc(N[C@H](C)c2cccc(C(F)(F)CO)c2)c2c(n1)N1CCN=C1C(c1ccn(C)c(=O)c1)=C2` [Example 118], the IC50 in test [2] is less than 10 nM; in test [1] (setting [3]) it was 100 to 500 nM.

Regarding `Cc1nc(N[C@H](C)c2cccc(C(F)(F)F)c2)c2c(n1)N1CCN=C1C(c1cccc(=O)n1C)=C2` [Example 102], the IC50 in test [1] (setting [3]) is 100 to 500 nM. On to `Cc1nc(N[C@H](C)c2cccc(C(F)(F)CO)c2)c2c(n1)N1CCN=C1C(c1ccc(=O)n(C)c1)=C2` [Example 71], for which the IC50 in test [2] is less than 10 nM; in test [1] (setting [3]), 100 to 500 nM. On to `Cc1nc(N[C@H](C)c2cccc(C(F)(F)F)c2)c2c(n1)N1CCN=C1C(c1cccn(C)c1=O)=C2` [Example 99], for which the IC50 in test [2] lay in the range of 10 to 50 nM; in test [1] (setting [3]) it was 100 to 500 nM.

In the case of `Cc1nc(N[C@H](C)c2cccc(C(F)F)c2F)c2c(n1)N1CCN=C1C(C1=CCN(S(C)(=O)=O)CC1)=C2` [Example 122], the IC50 was less than 10 nM in test [2] and 50 to 100 nM in test [1] (setting [3]).

With `Cc1nc(N[C@H](C)c2cccc(C(F)(F)F)c2)c2c(n1)N1CCN=C1C(c1cccnc1)=C2` [Example 94], the IC50 in test [1] (setting [3]) was in the range of 100 to 500 nM.

With `CCn1cc(C2=Cc3c(N[C@H](C)c4cccc(C(F)(F)F)c4)nc(C)nc3N3CCN=C23)ccc1=O` [Example 98], the IC50 in test [2] was less than 10 nM; in test [1] (setting [3]), 100 to 500 nM. On the same counts, the results for `[2H]C([2H])([2H])n1ccc(C2=Cc3c(N[C@H](C)c4cccc(C(F)(F)F)c4)nc(C)nc3N3CCN=C23)cc1=O` [Example 109] are 10 to 50 nM and 50 to 100 nM. The corresponding values for `Cc1nc(N[C@H](C)c2cccc(C(F)F)c2F)c2c(n1)N1CCN=C1C(C1=CCN(C(=O)C3(F)CC3)CC1)=C2` [Example 124] are less than 10 nM and 50 to 100 nM. For the compound `Cc1nc(N[C@H](C)c2cccc(C(F)F)c2F)c2cc(-c3ccn(C)c(=O)c3)n3cnnc3c2n1` [Example 9], in test [2], the IC50 was in the range of 10 to 50 nM. Take `CC(=O)N1CC=C(c2cc3c(N[C@H](C)c4cccc(C(F)(F)F)c4)nc(C)nc3n3cnnc23)CC1` [Example 2]: the values for the IC50 in test [2] and in test [1] (setting [3]) were 10 to 50 nM and 100 to 500 nM, respectively. Turning to `C[C@@H](Nc1nc(C2CC2)nc2c1C=C(c1ccc(=O)n(C)c1)C1=NCCN12)c1cccc(C(F)(F)F)c1` [Example 111], the IC50 in test [1] (setting [3]) was in the range of 100 to 500 nM. `Cc1nc(N[C@H](C)c2cccc(C(F)(F)F)c2)c2cc(N3CCN(C)CC3)c3nncn3c2n1` [Example 3]: the IC50 in test [2] was 10 to 50 nM; in test [1] (setting [3]), 100 to 500 nM.

Regarding `Cc1nc(N[C@H](C)c2cccc(C(F)(F)F)c2)c2c(n1)N1CCN=C1C(c1ccn(CF)c(=O)c1)=C2` [Example 113], the IC50 in test [1] (setting [3]) lay within 100 to 500 nM. The same measure, in the same setting: for `Cc1nc(N[C@H](C)c2cccc(C(F)(F)F)c2)c2c(n1)N1CCN=C1C(c1cnc(=O)n(C)c1)=C2` [Example 103] the value was 100 to 500 nM.
